# Data published in article PMC11436673 (Journal of Experimental Pharmacology, 2024).
# pIC50: −log10 of the molar value.
# Target: T1, human monoacylglycerol lipase (MGL) (Homo sapiens, UniProt Q99685)
# T1 sequence (Q99685 1-303): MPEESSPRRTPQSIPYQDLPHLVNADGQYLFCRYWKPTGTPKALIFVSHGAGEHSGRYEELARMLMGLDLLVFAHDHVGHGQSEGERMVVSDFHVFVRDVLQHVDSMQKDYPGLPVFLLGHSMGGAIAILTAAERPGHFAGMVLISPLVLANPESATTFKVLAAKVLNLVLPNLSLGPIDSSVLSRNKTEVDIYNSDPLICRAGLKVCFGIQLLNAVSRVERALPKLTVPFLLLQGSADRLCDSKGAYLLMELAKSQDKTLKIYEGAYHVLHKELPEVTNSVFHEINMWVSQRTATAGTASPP
# Format: biochemical
smiles,measurement,value
CC[C@H](CC[C@@H](C)[C@H]1CC[C@H]2[C@@H]3CC=C4C[C@@H](O)CC[C@]4(C)[C@H]3CC[C@]12C)C(C)C [beta-sitosterol],pIC50,4.71
